According to patent US20250283887A1, “FLUORESCENT-PROBE SOLUTION” (GORYO CHEMICAL, INC., priority 2022, published 2025):

How the values were obtained:
[1] = Storage stability of fluorescent-probe solutions of Test Examples 1 to 11 in sealed glass vials (HPLC purity); format: physicochemical
Description: A 25 mL glass vial (manufactured by Daiwa Special Glass Co., Ltd.) was filled with 0.125 mL to 0.312 mL of the fluorescent-probe solution obtained in each of Test Examples 1 to 11, and the opening of the glass vial was plugged with a rubber stopper (No. 20-T manufactured by Maruemu Corporation), and then tightly sealed with an aluminum cap over the rubber stopper. The vial filled with each of the fluorescent-probe solutions was stored at 25° C. or 50° C. in the dark for from 25 days to 32 days.
The purity of HMRef-αMan in each of the fluorescent-probe solutions within 12 hours after preparation, and that in each of the fluorescent-probe solutions after storage for from 25 days to 32 days in the vials were measured as described below, and the difference between the purities (the former−the latter) was divided by the number of storage days. Thus, the reduction amount of the purity per day was calculated. In addition, the reduction amount of the purity (converted value) in storage (3 years) at room temperature or in storage (1 year) at 50° C. was calculated from the reduction amount of the purity per day. All the purities of HMRef-αMan within 12 hours after the preparation of the fluorescent-probe solutions obtained in Test Examples 1 to 11 were 99% or more.
HPLC analysis was performed under the following conditions through use of a liquid chromatography system (UltiMate 3000, Thermo Fisher Scientific Inc.), and the ratio of the peak area of HMRef-αMan with respect to the entire peak area was calculated as a purity. • Column: Meteoric core C8, 5 μm, 4.6×150 mm (YMC Co., Ltd.) • Column temperature: 25° C. • Mobile phase A: water/TFA (1,000:1) • Mobile phase B: acetonitrile/TFA (1,000:1) • Liquid-feeding amount: 1.0 mL/min. • Wavelength: 254 nm • Liquid feeding to mobile phase: The liquid was fed under the conditions shown in the following table. […]

[2] = Storage stability of Tween 80-containing fluorescent-probe solutions of Test Examples 13 to 15 in sealed glass vials (HPLC purity); format: physicochemical; settings: vial stored at 25°C in the dark for 85 days; converted to 3 years (FIG. 4); DMSO 10-50 v/v % with Tween 80
Description: HPLC analysis was performed under the following conditions through use of a liquid chromatography system (UltiMate 3000, Thermo Fisher Scientific Inc.), and the ratio of the peak area of HMRef-αMan with respect to the entire peak area was calculated as a purity. • Column: Meteoric core C8, 5 μm, 4.6×150 mm (YMC Co., Ltd.) • Column temperature: 25° C. • Mobile phase A: water/TFA (1,000:1) • Mobile phase B: acetonitrile/TFA (1,000:1) • Liquid-feeding amount: 1.0 mL/min. • Wavelength: 254 nm • Liquid feeding to mobile phase: The liquid was fed under the conditions shown in the following table.
A glass vial was filled with the fluorescent-probe solution obtained in each of Test Examples 13 to 15, and sealed with a rubber stopper. The vial filled with each of the fluorescent-probe solutions was stored at 25° C. in the dark for 85 days, and analysis was performed by liquid chromatography.
In the same manner as in Test Examples 1 to 11, the purity of HMRef-αMan and the content of the oxidized form thereof in each of the fluorescent-probe solutions within 12 hours after preparation, and those in each of the fluorescent-probe solutions after storage for 85 days in the vials were measured, and the reduction amount of the purity and the increase amount of the oxidized form in 3 years were calculated as converted values. […]

stability during storage ([1]; presence of water in the solvent, FIG. 1 and FIG. 2): improved
SMILES: OC[C@H]1O[C@H](Cc2ccc3c(c2)Oc2cc(NCC(F)(F)F)ccc2C32OCc3ccccc32)[C@@H](O)[C@@H](O)[C@@H]1O (stereo partly shown) [HMRef-αMan]
main analog observed after storage (mass spectrometry of resolved HPLC peak) ([1]; after storage for 25 to 32 days in the vials): an analog (oxidized form) in which two hydrogen atoms were lost from HMRef-αMan was observed as a main analog | reduction in purity of HMRef-αMan during storage ([1]; vial stored at 25°C or 50°C in the dark for 25 to 32 days, converted to 3 years at room temperature / 1 year at 50°C (FIG. 1, FIG. 2), DMSO/water with or without phosphate): suppressed by the presence of water in the solvent | reduction in purity of HMRef-αMan during storage [2]: suppressed even when the content of the organic solvent is reduced by adding the solubilizer
